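Protocol summary: plate cells (96-well), add compound at 5 concentrations, incubate 48 h, interpolate endpoints linearly. TGI: total growth inhibition.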
What was measured:
Assay in all cases: NCI-60 cell line screen, 48 h
[1] = system: SK-MEL-28 melanoma
[2] = system: UO-31 renal
[3] = system: SF-539 CNS
[4] = system: T-47D breast
[5] = system: HT29 colon
[6] = system: PC-3 prostate
[7] = system: COLO 205 colon
[8] = system: HOP-62 NSCLC
[9] = system: LOX IMVI melanoma
[10] = system: CAKI-1 renal
[11] = system: HCT-116 colon
[12] = system: KM12 colon
[13] = system: OVCAR-5 ovarian
[14] = system: NCI-H460 lung
[15] = system: SF-295 CNS
[16] = system: HCT-15 colon
[17] = system: MOLT-4 leukemia
[18] = system: SW-620 colon
[19] = system: A549 NSCLC
[20] = system: SK-MEL-5 melanoma
[21] = system: HL-60(TB) leukemia
[22] = system: UACC-257 melanoma
[23] = system: SK-OV-3 ovarian
[24] = system: NCI-H522 lung
[25] = system: ACHN renal
[26] = system: OVCAR-8 ovarian
[27] = system: CCRF-CEM leukemia
[28] = system: UACC-62 melanoma
[29] = system: SR leukemia
[30] = system: SNB-19 CNS
[31] = system: M14 melanoma
[32] = system: DU-145 prostate
[33] = system: HCC-2998 colon
[34] = system: NCI/ADR-RES ovarian
[35] = system: MALME-3M melanoma
[36] = system: HS 578T breast
[37] = system: A498 renal
[38] = system: K-562 leukemia
[39] = system: SK-MEL-2 melanoma
[40] = system: MDA-MB-435
[41] = system: IGROV1 ovarian
[42] = system: OVCAR-4 ovarian
[43] = system: U251 CNS
[44] = system: MCF7 breast
[45] = system: NCI-H23 lung
[46] = system: RPMI-8226 leukemia
[47] = system: SF-268 CNS
[48] = system: OVCAR-3 ovarian
[49] = system: MDA-N
[50] = system: EKVX NSCLC
[51] = system: BT-549 breast
[52] = system: 786-0 renal
[53] = system: HOP-92 NSCLC
[54] = system: SNB-75 CNS
[55] = system: SN12C renal
[56] = system: RXF 393 renal
[57] = system: NCI-H226 lung
[58] = system: TK-10 renal
[59] = system: MDA-MB-231 breast

## O=C(Nc1ccccc1F)c1cc2ccc(O)cc2oc1=Nc1cccc(C(F)(F)F)c1
[1]
  TGI: 40.7 µM
[2]
  TGI: 15.5 µM
[3]
  TGI: 22.3 µM
[4]
  TGI: 15.8 µM
[5]
  TGI: > 100 µM
[6]
  TGI: > 100 µM
[7]
  TGI: 33 µM
[8]
  TGI: 53.7 µM
[9]
  TGI: 6.52 µM
[10]
  TGI: 19.7 µM
[11]
  TGI: 18.1 µM
[12]
  TGI: 26.8 µM
[13]
  TGI: > 100 µM
[14]
  TGI: > 100 µM
[15]
  TGI: > 100 µM
[16]
  TGI: 10.9 µM
[17]
  TGI: 67.8 µM
[18]
  TGI: > 100 µM
[19]
  TGI: > 100 µM
[20]
  TGI: 4.91 µM
[21]
  TGI: 4.84 µM
[22]
  TGI: > 100 µM
[23]
  TGI: 35.2 µM
[24]
  TGI: 18.7 µM
[25]
  TGI: 19.4 µM
[26]
  TGI: 5.27 µM
[27]
  TGI: 4.79 µM
[28]
  TGI: 21 µM
[29]
  TGI: 17.7 µM
[30]
  TGI: > 100 µM
[31]
  TGI: 26 µM
[32]
  TGI: > 100 µM
[33]
  TGI: > 100 µM
[34]
  TGI: 9.93 µM
[35]
  TGI: 34.9 µM
[36]
  TGI: 7.75 µM
[37]
  TGI: 38.3 µM
[38]
  TGI: > 100 µM
[39]
  TGI: 36 µM
[40]
  TGI: 22.7 µM
[41]
  TGI: 5.54 µM
[42]
  TGI: 12.9 µM
[43]
  TGI: 19.3 µM
[44]
  TGI: > 100 µM
[45]
  TGI: 4.44 µM
[46]
  TGI: > 100 µM
[47]
  TGI: 13.2 µM
[48]
  TGI: > 100 µM
[49]
  TGI: > 100 µM
[50]
  TGI: 10.6 µM
[51]
  TGI: 8.42 µM
[52]
  TGI: 17.8 µM

## O=C1/C(=C/c2ccco2)N=C(c2ccccc2)N1c1cc2cc(Sc3ccccc3)ccc2[nH]1
[1]
  TGI: > 25 µM
[2]
  TGI: > 25 µM
[3]
  TGI: > 25 µM
[4]
  TGI: > 25 µM
[5]
  TGI: > 25 µM
[53]
  TGI: > 25 µM
[6]
  TGI: > 25 µM
[54]
  TGI: > 25 µM
[7]
  TGI: > 25 µM
[9]
  TGI: > 25 µM
[10]
  TGI: > 25 µM
[11]
  TGI: > 25 µM
[13]
  TGI: > 25 µM
[16]
  TGI: > 25 µM
[55]
  TGI: > 25 µM
[17]
  TGI: > 25 µM
[18]
  TGI: > 25 µM
[19]
  TGI: > 25 µM
[21]
  TGI: 5.96 µM
[24]
  TGI: > 25 µM
[25]
  TGI: > 25 µM
[26]
  TGI: > 25 µM
[27]
  TGI: > 25 µM
[28]
  TGI: > 25 µM
[29]
  TGI: > 25 µM
[30]
  TGI: > 25 µM
[31]
  TGI: > 25 µM
[32]
  TGI: > 25 µM
[56]
  TGI: > 25 µM
[34]
  TGI: > 25 µM
[35]
  TGI: > 25 µM
[36]
  TGI: > 25 µM
[37]
  TGI: > 25 µM
[38]
  TGI: > 25 µM
[39]
  TGI: > 25 µM
[40]
  TGI: > 25 µM
[41]
  TGI: > 25 µM
[42]
  TGI: > 25 µM
[44]
  TGI: > 25 µM
[45]
  TGI: > 25 µM
[46]
  TGI: 2.4 µM
[47]
  TGI: > 25 µM
[49]
  TGI: > 25 µM
[50]
  TGI: > 25 µM
[51]
  TGI: > 25 µM
[52]
  TGI: > 25 µM

## Cc1ccc(S(=O)(=O)NC(=O)Nc2ccc(S(N)(=O)=O)cc2S(N)(=O)=O)cc1
[1]
  TGI: > 100 µM
[2]
  TGI: > 100 µM
[57]
  TGI: > 100 µM
[5]
  TGI: > 100 µM
[53]
  TGI: > 100 µM
[6]
  TGI: > 100 µM
[54]
  TGI: > 100 µM
[7]
  TGI: > 100 µM
[8]
  TGI: > 100 µM
[9]
  TGI: > 100 µM
[10]
  TGI: > 100 µM
[11]
  TGI: > 100 µM
[12]
  TGI: > 100 µM
[13]
  TGI: > 100 µM
[15]
  TGI: > 100 µM
[16]
  TGI: > 100 µM
[55]
  TGI: > 100 µM
[17]
  TGI: > 100 µM
[18]
  TGI: > 100 µM
[19]
  TGI: > 100 µM
[20]
  TGI: > 100 µM
[21]
  TGI: > 100 µM
[22]
  TGI: > 100 µM
[23]
  TGI: > 100 µM
[24]
  TGI: > 100 µM
[26]
  TGI: > 100 µM
[27]
  TGI: > 100 µM
[28]
  TGI: > 100 µM
[30]
  TGI: > 100 µM
[31]
  TGI: > 100 µM
[32]
  TGI: > 100 µM
[56]
  TGI: > 100 µM
[34]
  TGI: > 100 µM
[35]
  TGI: > 100 µM
[36]
  TGI: > 100 µM
[38]
  TGI: > 100 µM
[39]
  TGI: > 100 µM
[40]
  TGI: > 100 µM
[41]
  TGI: > 100 µM
[42]
  TGI: > 100 µM
[43]
  TGI: > 100 µM
[58]
  TGI: > 100 µM
[44]
  TGI: > 100 µM
[45]
  TGI: > 100 µM
[59]
  TGI: > 100 µM
[46]
  TGI: > 100 µM
[47]
  TGI: > 100 µM
[48]
  TGI: > 100 µM
[49]
  TGI: > 100 µM
[50]
  TGI: > 100 µM
[51]
  TGI: > 100 µM
[52]
  TGI: > 100 µM

## O=C1c2scc(-c3ccc(Cl)cc3)c2-n2cccc21
[1]
  TGI: > 100 µM
[4]
  TGI: > 100 µM
[6]
  TGI: > 100 µM
[54]
  TGI: > 100 µM
[7]
  TGI: > 100 µM
[9]
  TGI: > 100 µM
[12]
  TGI: > 100 µM
[13]
  TGI: > 100 µM
[14]
  TGI: > 100 µM
[15]
  TGI: > 100 µM
[17]
  TGI: > 100 µM
[18]
  TGI: > 100 µM
[19]
  TGI: > 100 µM
[20]
  TGI: > 100 µM
[22]
  TGI: > 100 µM
[23]
  TGI: > 100 µM
[24]
  TGI: > 100 µM
[25]
  TGI: > 100 µM
[27]
  TGI: > 100 µM
[28]
  TGI: > 100 µM
[29]
  TGI: 13.7 µM
[31]
  TGI: > 100 µM
[32]
  TGI: > 100 µM
[56]
  TGI: > 100 µM
[33]
  TGI: > 100 µM
[35]
  TGI: > 100 µM
[37]
  TGI: 2.78 µM
[38]
  TGI: > 100 µM
[39]
  TGI: > 100 µM
[40]
  TGI: > 100 µM
[41]
  TGI: > 100 µM
[59]
  TGI: > 100 µM
[46]
  TGI: > 100 µM
[48]
  TGI: > 100 µM
[49]
  TGI: > 100 µM
[50]
  TGI: > 100 µM

From PubChem BioAssay (NCI)
